Assay results reported in ChEMBL document CHEMBL4152309, “N-phenylsulfonyl-3,5-bis(arylidene)-4-piperidone derivatives as activation NF-κB inhibitors in hepatic carcinoma cell lines” (Eur J Med Chem, 2018).
Calls of active or inactive are those of the source. No cut-off for these calls is given here.

Tests used:
L02 = test: Cytotoxicity against human LO2 cells assessed as reduction in cell viability after 24 hrs by MTT assay; type: cell-based; conditions: L02, 24 h
[1] = Cytotoxicity against mouse RAW264.7 cells assessed as cell viability at 10 uM after 24 hrs by MTT assay relative to control; type: cell-based; conditions: read-out: Activity
QGY-7703 = test: Cytotoxicity against human QGY7703 cells assessed as reduction in cell viability after 24 hrs by MTT assay; type: functional, cell-based; conditions: for IC50: QGY-7703, 24 h
SMMC-7721 = test: Cytotoxicity against human SMMC7721 cells assessed as reduction in cell viability after 24 hrs by MTT assay; type: functional, cell-based; conditions: for IC50: SMMC-7721, 24 h
[2] = Cytotoxicity against human HHL5 cells assessed as reduction in cell viability after 24 hrs by MTT assay; type: cell-based; conditions: HHL-5, 24 h
HepG2 = test: Cytotoxicity against human HepG2 cells assessed as reduction in cell viability after 24 hrs by MTT assay; type: functional, cell-based; conditions: for IC50: HepG2, 24 h
RAW264.7 [3] = test: Anti-inflammatory activity in mouse RAW264.7 cells assessed as inhibition of LPS-induced IL-6 secretion at 10 uM pretreated for 2 hrs followed by LPS stimulation and measured after 22 hrs by ELISA; type: functional, cell-based
RAW264.7 [4] = test: Anti-inflammatory activity in mouse RAW264.7 cells assessed as inhibition of LPS-induced IL-6 secretion at 30 uM pretreated for 2 hrs followed by LPS stimulation and measured after 22 hrs by ELISA; type: functional, cell-based
RAW264.7 [5] = test: Anti-inflammatory activity in mouse RAW264.7 cells assessed as inhibition of LPS-induced TNFalpha secretion at 30 uM pretreated for 2 hrs followed by LPS stimulation and measured after 22 hrs by ELISA; type: functional, cell-based
RAW264.7 [6] = test: Anti-inflammatory activity in mouse RAW264.7 cells assessed as inhibition of LPS-induced TNFalpha secretion at 10 uM pretreated for 2 hrs followed by LPS stimulation and measured after 22 hrs by ELISA; type: functional, cell-based

Row | SMILES | IC50 (L02) [µM] | viability at 24 h, 10 µM [1] [%] | IC50 (QGY-7703) [µM] | IC50 (SMMC-7721) [µM] | IC50 [2] [µM] | IC50 (HepG2) [µM] | inhibition (RAW264.7 [3]) | inhibition (RAW264.7 [4]) | inhibition (RAW264.7 [5]) | inhibition (RAW264.7 [6]) | Activity (QGY-7703) | Activity (SMMC-7721) | Activity (HepG2)
1 | COc1cc(/C=C2\CN(S(=O)(=O)c3ccc(NC(C)=O)cc3)C/C(=C\c3cc(OC)cc(OC)c3)C2=O)cc(OC)c1 | 18.7 | > 80 | 11.3 | 6.84 | 18.1 | 7.54 |  |  |  |  |  |  | 
2 | CC(=O)Nc1ccc(S(=O)(=O)N2C/C(=C\c3cccc([N+](=O)[O-])c3)C(=O)/C(=C/c3ccccc3F)C2)cc1 | 18.4 | > 80 | 7.85 | 10.2 | 20 | 8.8 | Active |  |  |  |  |  | 
3 | COc1cc(/C=C2\CN(S(=O)(=O)c3ccc(F)cc3)C/C(=C\c3cccc([N+](=O)[O-])c3)C2=O)cc(OC)c1OC | 18.8 | > 80 | 3.27 | 4.9 | 11.1 | 3.25 |  |  |  |  |  |  | 
4 | S=C(S)N1CCCC1 |  |  |  |  |  |  |  | Active | Active |  |  |  | 
5 | COc1cc(/C=C2\CN(S(=O)(=O)c3ccc(F)cc3)C/C(=C\c3ccccc3F)C2=O)cc(OC)c1OC | 17.6 | > 80 | 13.3 | 6.34 | 15.9 | 7.94 | Active |  |  |  |  |  | 
6 | CC(=O)Nc1ccc(S(=O)(=O)N2C/C(=C\c3ccc(C#N)cc3)C(=O)/C(=C/c3ccc(C#N)cc3)C2)cc1 | 14 | > 80 | 3.32 | 7.12 | 11.9 | 4.88 |  |  |  |  |  |  | 
7 | N#Cc1ccc(/C=C2\CN(S(=O)(=O)c3ccc(F)cc3)C/C(=C\c3ccc(C#N)cc3)C2=O)cc1 | 18.9 | > 80 | 11.3 | 20.1 | 19.2 | 11.5 |  |  |  | Active |  |  | 
8 | COc1cc(/C=C2\CN(S(=O)(=O)c3ccc(NC(C)=O)cc3)C/C(=C\c3ccccc3F)C2=O)cc(OC)c1 | 15.4 | > 80 | 3.69 | 5.21 | 15.3 | 6.8 |  |  |  |  |  |  | 
9 | COc1cc(/C=C2\CN(S(=O)(=O)c3ccc(F)cc3)C/C(=C\c3ccccc3F)C2=O)cc(OC)c1 | 18.4 | > 80 | 14 | 6.89 | 16 | 9.3 |  |  |  |  |  |  | 
10 | COc1cc(/C=C2\CN(S(=O)(=O)c3ccc(F)cc3)C/C(=C\c3cc(OC)c(OC)c(OC)c3)C2=O)cc(OC)c1 | 12.3 | > 80 | 5.2 | 5.42 | 11.3 | 3.89 |  |  |  | Active |  |  | 
11 | O=C1/C(=C/c2cccc([N+](=O)[O-])c2)CN(S(=O)(=O)c2ccc(F)cc2)C/C1=C\c1ccccc1F | 17 | > 80 | 14.9 | 7.82 | 17.8 | 7.04 |  |  |  |  |  |  | 
12 | COc1cc(/C=C2\CN(S(=O)(=O)c3ccc(F)cc3)C/C(=C\c3ccc(C#N)cc3)C2=O)cc(OC)c1OC | 12.9 | > 80 | 4.98 | 4.12 | 12.9 | 4.95 |  |  |  |  |  |  | 
13 | O=C1/C(=C/c2ccccc2F)CN(S(=O)(=O)c2ccc(F)cc2)C/C1=C\c1ccccc1F | 19.1 | > 80 | 8.5 | 8.37 | 13.4 | 7.22 |  |  |  |  |  |  | 
14 | COc1cccc2c1C(=O)c1c(O)c3c(c(O)c1C2=O)C[C@@](O)(C(=O)CO)C[C@@H]3O[C@H]1C[C@H](N)[C@H](O)[C@H](C)O1 [DOXORUBICIN] | 7.87 |  | 1.44 | 1.47 | 9.27 | 1.01 |  |  |  |  | Dose-dependent effect | Dose-dependent effect | Dose-dependent effect
15 | COc1cc(/C=C2\CN(S(=O)(=O)c3ccc(NC(C)=O)cc3)C/C(=C\c3ccccc3F)C2=O)cc(OC)c1OC | 14 | > 80 | 2.68 | 3.92 | 12.2 | 4.75 |  |  |  |  |  |  | 
16 | COc1cc(/C=C2\CN(S(=O)(=O)c3ccc(NC(C)=O)cc3)C/C(=C\c3cc(OC)c(OC)c(OC)c3)C2=O)cc(OC)c1OC | 13.6 | > 80 | 1.9 | 3.47 | 13.8 | 3.89 |  |  |  |  |  |  | 
17 | O=C1/C(=C/c2cccc([N+](=O)[O-])c2)CN(S(=O)(=O)c2ccc(F)cc2)C/C1=C\c1cccc([N+](=O)[O-])c1 | 15.5 | > 80 | 11.9 | 3.98 | 11.2 | 8.76 |  |  |  |  |  |  | 
18 | CC(=O)Nc1ccc(S(=O)(=O)N2C/C(=C\c3ccccc3F)C(=O)/C(=C/c3ccccc3F)C2)cc1 | 11.6 | > 80 | 5.5 | 7.49 | 13.3 | 5.84 |  |  |  |  |  |  | 
19 | CC(=O)Nc1ccc(S(=O)(=O)N2C/C(=C\c3cccc([N+](=O)[O-])c3)C(=O)/C(=C/c3cccc([N+](=O)[O-])c3)C2)cc1 | 15.8 | > 80 | 6.76 | 8.42 | 17.8 | 7.14 |  |  |  |  |  |  | 
20 | COc1cc(/C=C2\CN(S(=O)(=O)c3ccc(NC(C)=O)cc3)C/C(=C\c3cccc([N+](=O)[O-])c3)C2=O)cc(OC)c1OC | 15.6 | > 80 | 2.55 | 1.95 | 14.2 | 3.34 |  |  |  |  |  |  | 
21 | COc1cc(/C=C2\CN(S(=O)(=O)c3ccc(F)cc3)C/C(=C\c3cc(OC)cc(OC)c3)C2=O)cc(OC)c1 | 19.8 | > 80 | 11.4 | 8.21 | 14.4 | 8.1 |  |  |  |  |  |  | 
22 | COc1cc(/C=C2\CN(S(=O)(=O)c3ccc(NC(C)=O)cc3)C/C(=C\c3cc(OC)c(OC)c(OC)c3)C2=O)cc(OC)c1 | 15.9 | > 80 | 2.02 | 4.2 | 13.5 | 4.14 |  |  |  |  |  |  | 
23 | COc1cc(/C=C/C(=O)CC(=O)/C=C/c2ccc(O)c(OC)c2)ccc1O [CURCUMIN] | 23.9 |  | 21.4 | 19.5 | 22.3 | 16 |  |  |  |  |  |  | 
24 | CC(=O)Nc1ccc(S(=O)(=O)N2C/C(=C\c3ccc(C#N)cc3)C(=O)/C(=C/c3ccccc3F)C2)cc1 | 14.4 | > 80 | 2.05 | 3.15 | 11.3 | 4.96 |  |  |  |  |  |  | 
25 | COc1cc(/C=C2\CN(S(=O)(=O)c3ccc(F)cc3)C/C(=C\c3cc(OC)c(OC)c(OC)c3)C2=O)cc(OC)c1OC | 12.1 | > 80 | 2.22 | 3.84 | 11 | 4.2 |  |  |  |  |  |  | 
26 | N#Cc1ccc(/C=C2\CN(S(=O)(=O)c3ccc(F)cc3)C/C(=C\c3ccccc3F)C2=O)cc1 | 21.9 | > 80 | 20.1 | 10.2 | 19 | 8.18 |  |  |  | Active |  |  | 
